Laboratory results: ChEMBL document CHEMBL1133987, “Broad spectrum antiprotozoal agents that inhibit histone deacetylase: structure-activity relationships of apicidin. Part 1” (Bioorg Med Chem Lett, 2001)
Values after ≈ are worked out from the molar mass of the structure shown.

Tests used:
Plasmodium falciparum = assay: In vitro antiprotozoal activity against Plasmodium falciparum 3D7 infected erythrocytes […]; type: functional, organism-based
Histone deacetylase [1] = assay: Inhibitory activity against histone deacetylase (HDAC) derived from partially purified extracts of human HeLa cells
Eimeria tenella = assay: Antiprotozoal activity (functional assay) using […] bovine kidney (MDBK) host cells infected with Eimeria tenella
HeLa = assay: Concentration for 50% inhibition of cell growth of human HeLa cells or foreskin fibroblasts in In vitro anti-proliferative functional assay
Histone deacetylase [2] = assay: Inhibitory activity against histone deacetylase (HDAC) derived from partially purified extracts of mammalian HeLa cells; set-up: species or system Homo sapiens

C=C(CC)CCCCC[C@@H]1NC(=O)[C@H]2CCCCN2CC(=O)[C@H]([C@@H](C)CC)NC(=O)[C@H](Cc2cn(OC)c3ccccc23)NC1=O
IC50 (Plasmodium falciparum): 1 µg/mL (≈ 1.57 µM)
IC50 (Histone deacetylase [1]): 1450 nM
MIC (Eimeria tenella): 1 µg/mL (≈ 1.57 µM)

CCCCCCCC[C@@H]1NC(=O)[C@H]2CCCCN2CC(=O)[C@H]([C@@H](C)CC)NC(=O)[C@H](Cc2cn(OC)c3ccccc23)NC1=O
IC50 (Plasmodium falciparum): 0.61 µg/mL (≈ 0.978 µM)
IC50 (Histone deacetylase [1]): 61 nM
MIC (Eimeria tenella): 1 µg/mL (≈ 1.6 µM)

CCC(N)CCCCC[C@@H]1NC(=O)[C@H]2CCCCN2CC(=O)[C@H]([C@@H](C)CC)NC(=O)[C@H](Cc2cn(OC)c3ccccc23)NC1=O (some centres not stated)
IC50 (Plasmodium falciparum): > 1 µg/mL
IC50 (Histone deacetylase [1]): 144 nM
MIC (Eimeria tenella): > 1 µg/mL

CC[C@H](C)[C@@H]1NC(=O)[C@H](Cc2cn(OC)c3ccccc23)NC(=O)[C@H](CCCCCP(=O)(OC)OC)NC(=O)[C@H]2CCCCN2CC1=O
IC50 (Plasmodium falciparum): 0.85 µg/mL (≈ 1.23 µM)
IC50 (Histone deacetylase [1]): 450 nM
MIC (Eimeria tenella): > 1 µg/mL

CCC(=O)CCCCC[C@@H]1NC(=O)[C@H]2CCCCN2CC(=O)[C@H]([C@@H](C)CC)NC(=O)[C@H](Cc2cn(OC)c3ccccc23)NC1=O
IC50 (Plasmodium falciparum): 0.058 µg/mL (≈ 0.0909 µM)
IC50 (Histone deacetylase [1]): 1 nM
MIC (Eimeria tenella): 0.094 µg/mL (≈ 0.147 µM)

CC[C@H](C)[C@@H]1NC(=O)[C@H](Cc2cn(OC)c3ccccc23)NC(=O)[C@H](CCCCCC(=O)NO)NC(=O)[C@H]2CCCCN2CC1=O
IC50 (Plasmodium falciparum): 0.00024 µg/mL (≈ 0.000375 µM)
MIC (Eimeria tenella): > 0.5 µg/mL

CC[C@H](C)[C@@H]1NC(=O)[C@H](Cc2cn(OC)c3ccccc23)NC(=O)[C@H](CCCCCC(=O)C2CO2)NC(=O)[C@H]2CCCCN2CC1=O (some centres not stated)
IC50 (Plasmodium falciparum): < 0.015 µg/mL
IC50 (Histone deacetylase [1]): < 0.1 nM
MIC (Eimeria tenella): 0.003 µg/mL (≈ 0.0046 µM)

CC[C@H](C)[C@@H]1NC(=O)[C@H](Cc2cn(OC)c3ccccc23)NC(=O)[C@H](CCCCCC2(CC)CO2)NC(=O)[C@H]2CCCCN2CC1=O (some centres not stated)
IC50 (Plasmodium falciparum): 1 µg/mL (≈ 1.53 µM)
IC50 (Histone deacetylase [1]): 60 nM
MIC (Eimeria tenella): > 1 µg/mL

CCC(=O)CCCCC[C@@H]1/N=C(\S)[C@H]2CCCCN2CC(=O)[C@H]([C@@H](C)CC)/N=C(\S)[C@H](Cc2cn(OC)c3ccccc23)NC1=O
IC50 (Plasmodium falciparum): 0.1 µg/mL (≈ 0.149 µM)
MIC (Eimeria tenella): 0.125 µg/mL (≈ 0.187 µM)
AP50 (HeLa): 1000 ng/mL

CCC(=O)CCCCC[C@@H]1NC(=O)[C@H]2CCCCN2CC(=O)[C@H]([C@@H](C)CC)/N=C(\S)[C@H](Cc2cn(OC)c3ccccc23)N=C1S
IC50 (Plasmodium falciparum): 0.1 µg/mL (≈ 0.149 µM)
MIC (Eimeria tenella): 0.125 µg/mL (≈ 0.187 µM)
AP50 (HeLa): 1000 ng/mL

CC[C@H](C)[C@@H]1NC(=O)[C@H](Cc2cn(OC)c3ccccc23)NC(=O)[C@H](CCCCCC(=O)OC)NC(=O)[C@H]2CCCCN2CC1=O
IC50 (Plasmodium falciparum): 0.21 µg/mL (≈ 0.328 µM)
IC50 (Histone deacetylase [1]): 0.4 nM
MIC (Eimeria tenella): > 1 µg/mL

CC[C@H](C)[C@@H]1NC(=O)[C@H](Cc2cn(OC)c3ccccc23)NC(=O)[C@H](CCCCNC(C)=O)NC(=O)[C@H]2CCCCN2CC1=O
IC50 (Plasmodium falciparum): 1 µg/mL (≈ 1.6 µM)
IC50 (Histone deacetylase [1]): 2000 nM
MIC (Eimeria tenella): > 1 µg/mL

CC[C@H](C)[C@@H]1NC(=O)[C@H](Cc2cn(OC)c3ccccc23)NC(=O)[C@H](CCCCCP(=O)([O-])O)NC(=O)[C@H]2CCCCN2CC1=O.[K+]
IC50 (Plasmodium falciparum): > 1 µg/mL
IC50 (Histone deacetylase [1]): 180 nM
MIC (Eimeria tenella): > 1 µg/mL

CC[C@H](C)[C@@H]1NC(=O)[C@H](Cc2cn(OC)c3ccccc23)NC(=O)[C@H](CCCCCCC(=O)OC)NC(=O)[C@H]2CCCCN2CC1=O
IC50 (Plasmodium falciparum): 0.5 µg/mL (≈ 0.765 µM)
IC50 (Histone deacetylase [1]): 7 nM
MIC (Eimeria tenella): > 1 µg/mL

CCC(=O)C(=O)CCCC[C@@H]1NC(=O)[C@H]2CCCCN2CC(=O)[C@H]([C@@H](C)CC)NC(=O)[C@H](Cc2cn(OC)c3ccccc23)NC1=O
IC50 (Plasmodium falciparum): 0.7 µg/mL (≈ 1.07 µM)
IC50 (Histone deacetylase [1]): 18 nM
MIC (Eimeria tenella): 0.313 µg/mL (≈ 0.48 µM)

CC[C@H](C)[C@@H]1NC(=O)[C@H](Cc2cn(OC)c3ccccc23)NC(=O)[C@H](CCCCCCC(=O)O)NC(=O)[C@H]2CCCCN2CC1=O
IC50 (Plasmodium falciparum): > 1 µg/mL
IC50 (Histone deacetylase [1]): 848 nM
MIC (Eimeria tenella): > 1 µg/mL

CC[C@H](C)[C@@H]1NC(=O)[C@H](Cc2cn(OC)c3ccccc23)NC(=O)[C@H](CCCCCC(=O)C(C)O)NC(=O)[C@H]2CCCCN2CC1=O (some centres not stated)
IC50 (Plasmodium falciparum): 0.022 µg/mL (≈ 0.0336 µM)
IC50 (Histone deacetylase [1]): 0.3 nM
MIC (Eimeria tenella): 0.008 µg/mL (≈ 0.0122 µM)

CC[C@H](C)[C@@H]1NC(=O)[C@H](Cc2cn(OC)c3ccccc23)NC(=O)[C@H](CCCCCC(=O)C(C)F)NC(=O)[C@H]2CCCCN2CC1=O (some centres not stated)
IC50 (Plasmodium falciparum): 0.028 µg/mL (≈ 0.0427 µM)
IC50 (Histone deacetylase [1]): 1 nM
MIC (Eimeria tenella): 0.062 µg/mL (≈ 0.0945 µM)

CC[C@H](C)[C@@H]1NC(=O)[C@H](Cc2cn(OC)c3ccccc23)NC(=O)[C@H](CCCCCC(=O)C(C)=O)NC(=O)[C@H]2CCCCN2CC1=O
IC50 (Plasmodium falciparum): 0.9 µg/mL (≈ 1.38 µM)
IC50 (Histone deacetylase [1]): 30 nM
MIC (Eimeria tenella): 0.25 µg/mL (≈ 0.384 µM)

CCC(=O)C(O)CCCC[C@@H]1NC(=O)[C@H]2CCCCN2CC(=O)[C@H]([C@@H](C)CC)NC(=O)[C@H](Cc2cn(OC)c3ccccc23)NC1=O (some centres not stated)
IC50 (Histone deacetylase [1]): 39 nM
MIC (Eimeria tenella): 1 µg/mL (≈ 1.53 µM)

CCC(=O)C(F)CCCC[C@@H]1NC(=O)[C@H]2CCCCN2CC(=O)[C@H]([C@@H](C)CC)NC(=O)[C@H](Cc2cn(OC)c3ccccc23)NC1=O (some centres not stated)
IC50 (Plasmodium falciparum): 0.7 µg/mL (≈ 1.07 µM)
IC50 (Histone deacetylase [1]): 110 nM
MIC (Eimeria tenella): 0.313 µg/mL (≈ 0.477 µM)

CC[C@H](C)[C@@H]1NC(=O)[C@H](Cc2cn(OC)c3ccccc23)NC(=O)[C@H](CCCCCC(=O)O)NC(=O)[C@H]2CCCCN2CC1=O
IC50 (Plasmodium falciparum): > 1 µg/mL
IC50 (Histone deacetylase [1]): 15 nM
MIC (Eimeria tenella): 1 µg/mL (≈ 1.6 µM)

CC[C@H](C)[C@@H]1NC(=O)[C@H](Cc2cn(OC)c3ccccc23)NC(=O)[C@H](CCCCC(=O)O)NC(=O)[C@H]2CCCCN2CC1=O
IC50 (Histone deacetylase [1]): 282 nM
MIC (Eimeria tenella): > 1 µg/mL

CC[C@H](C)[C@@H]1NC(=O)[C@H](Cc2cn(OC)c3ccccc23)NC(=O)[C@H](CCCCC(=O)OC)NC(=O)[C@H]2CCCCN2CC1=O
IC50 (Plasmodium falciparum): > 1 µg/mL
IC50 (Histone deacetylase [1]): 74 nM
MIC (Eimeria tenella): > 1 µg/mL

CC[C@H](C)[C@@H]1NC(=O)[C@H](Cc2cn(OC)c3ccccc23)NC(=O)[C@H](CCCCCC=O)NC(=O)[C@H]2CCCCN2CC1=O
IC50 (Plasmodium falciparum): 0.5 µg/mL (≈ 0.82 µM)
IC50 (Histone deacetylase [1]): 6 nM
MIC (Eimeria tenella): 1 µg/mL (≈ 1.64 µM)

CC[C@H](C)[C@@H]1NC(=O)[C@H](Cc2cn(OC)c3ccccc23)NC(=O)[C@H](CCCCCC(C)=O)NC(=O)[C@H]2CCCCN2CC1=O
IC50 (Plasmodium falciparum): 0.055 µg/mL (≈ 0.0882 µM)
IC50 (Histone deacetylase [1]): 2 nM
MIC (Eimeria tenella): 0.125 µg/mL (≈ 0.2 µM)

CC[C@H](C)[C@@H]1NC(=O)[C@H](Cc2cn(OC)c3ccccc23)NC(=O)[C@H](CCCCSC(C)=O)NC(=O)[C@H]2CCCCN2CC1=O
IC50 (Plasmodium falciparum): > 1 µg/mL
IC50 (Histone deacetylase [1]): 110 nM
MIC (Eimeria tenella): > 1 µg/mL

CC[C@H](C)[C@@H]1NC(=O)[C@H](Cc2cn(OC)c3ccccc23)NC(=O)[C@H](CCCCCSC)NC(=O)[C@H]2CCCCN2CC1=O
IC50 (Plasmodium falciparum): > 1 µg/mL
IC50 (Histone deacetylase [1]): 326 nM
MIC (Eimeria tenella): > 1 µg/mL

CCC(=O)C1OC1CCC[C@@H]1NC(=O)[C@H]2CCCCN2CC(=O)[C@H]([C@@H](C)CC)NC(=O)[C@H](Cc2cn(OC)c3ccccc23)NC1=O (some centres not stated)
IC50 (Plasmodium falciparum): 0.35 µg/mL (≈ 0.537 µM)
IC50 (Histone deacetylase [1]): 5 nM
MIC (Eimeria tenella): 0.15 µg/mL (≈ 0.23 µM)

CC[C@H](C)[C@@H]1NC(=O)[C@H](Cc2cn(OC)c3ccccc23)NC(=O)[C@H](CCCCCC(=O)c2ccccc2)NC(=O)[C@H]2CCCCN2CC1=O
IC50 (Plasmodium falciparum): 0.35 µg/mL (≈ 0.51 µM)
IC50 (Histone deacetylase [1]): 700 nM
MIC (Eimeria tenella): 1 µg/mL (≈ 1.46 µM)

CCC(=O)CCCCC[C@@H]1NC(=O)[C@H]2CCCCN2CC(=O)[C@H]([C@@H](C)CC)/N=C(\S)[C@H](Cc2cn(OC)c3ccccc23)NC1=O
IC50 (Plasmodium falciparum): 0.1 µg/mL (≈ 0.153 µM)
MIC (Eimeria tenella): 0.125 µg/mL (≈ 0.191 µM)
AP50 (HeLa): 1000 ng/mL
IC50 (Histone deacetylase [2]): 85 nM

CCC(CCCCC[C@@H]1NC(=O)[C@H]2CCCCN2CC(=O)[C@H]([C@@H](C)CC)NC(=O)[C@H](Cc2cn(OC)c3ccccc23)NC1=O)SC(C)=O (some centres not stated)
IC50 (Plasmodium falciparum): 0.59 µg/mL (≈ 0.845 µM)
MIC (Eimeria tenella): 0.25 µg/mL (≈ 0.358 µM)

CC[C@H](C)[C@@H]1NC(=O)[C@H](Cc2cn(OC)c3ccccc23)NC(=O)[C@H](CCCCCSC(C)=O)NC(=O)[C@H]2CCCCN2CC1=O
IC50 (Plasmodium falciparum): 0.9 µg/mL (≈ 1.37 µM)
IC50 (Histone deacetylase [1]): 3 nM
MIC (Eimeria tenella): 1 µg/mL (≈ 1.52 µM)

CC[C@H](C)[C@@H]1NC(=O)[C@H](Cc2cn(OC)c3ccccc23)NC(=O)[C@H](CCCCCC(=O)C(C)C)NC(=O)[C@H]2CCCCN2CC1=O
IC50 (Plasmodium falciparum): 0.5 µg/mL (≈ 0.767 µM)
IC50 (Histone deacetylase [1]): 235 nM
MIC (Eimeria tenella): 0.75 µg/mL (≈ 1.15 µM)

CCCC(=O)CCCCC[C@@H]1NC(=O)[C@H]2CCCCN2CC(=O)[C@H]([C@@H](C)CC)NC(=O)[C@H](Cc2cn(OC)c3ccccc23)NC1=O
IC50 (Plasmodium falciparum): 0.15 µg/mL (≈ 0.23 µM)
IC50 (Histone deacetylase [1]): 1 nM
MIC (Eimeria tenella): 0.125 µg/mL (≈ 0.192 µM)
